According to patent US6864244B2, “Anhydrous crystalline 1-[4(S)-azido-2(S),3(R)-dihydroxy-4-(hydroxymethyl)-1(R)-cyclopentyl]cytosine hemisulfate as useful as an antiviral agent” (Roche Palo Alto LLC, priority 2002, dated 2005):
Like-named read-outs stand apart in the source and are kept apart here. Each block holds one molecule with its values, some of them ahead of it.

Experiments:
Format in all cases: physicochemical
[1] = Polymorph transformation in the presence of moisture
[2] = Differential scanning calorimetry (DSC), thermal properties
[3] = Thermal stability on storage at 60° C. and at 40° C./75% relative humidity (HPLC assay against external standard); conditions: for ASSAY: HPLC
Protocol: (§1) A small amount of the polymorphic Form C crystal (about 10 mg) was weighed into a weighing bottle and placed in a chamber with controlled relative humidity for 4 weeks and the percentage of water absorbed was calculated form the weight gain. The sample was also assayed by HPLC against an external standard on a Waters 2690 HPLC at 276 nm with a Zorbax SB-Phenyl column. The mobile phase is a gradient run at 1 mL/min consisting of acetonitrile/water with 10 mM heptane sulfonic acid, 0.1% phosphoric acid in both. The gradient is run as 10% ACN to 100% in 30 min. The data was processed using Waters Millennium software version 3.2. The thermal stability also was determined at 60° C. and at 40° C./75% relative humidity. The purity of the sample was determined by assaying weighed aliquots by HPLC against an external standard.

[4] = Hygroscopicity at 93% relative humidity (weight gain, HPLC assay)
Protocol: as §1

[5] = Accelerating rate calorimetric (ARC) determination (adiabatic calorimetry conditions)

polymorphic transformation [1]: transformed into Form C
exothermic decomposition onset temperature [2]: approximately 185 °C
exothermic decomposition onset temperature ([2]; listed as Form A polymorph of Ia): 185 °C
Compound: [N-]=[N+]=N[C@]1(CO)O[C@@H](n2ccc(N)nc2=O)[C@H](O)[C@@H]1O [Form A of Ia]

polymorphic transformation [1]: transformed into Form C
exothermic decomposition onset temperature [2]: approximately 189 °C
exothermic decomposition onset temperature ([2]; listed as Form B polymorph of Ia): 189 °C
Compound: [N-]=[N+]=N[C@]1(CO)O[C@@H](n2ccc(N)nc2=O)[C@H](O)[C@@H]1O [Form B of Ia]

APPEARANCE ([3]; 40° C./75% RH, 1 week): white powder
POLYMORPH ([3]; 40° C./75% RH, 1 week): Form C
ASSAY ([3]; 40° C./75% RH, 1 week): 99.9
APPEARANCE ([3]; 40° C./75% RH, 2 weeks): white powder
ASSAY ([3]; 40° C./75% RH, 2 weeks): 99.9
APPEARANCE ([3]; 40° C./75% RH, 4 weeks): white powder
POLYMORPH ([3]; 40° C./75% RH, 4 weeks): Form C
ASSAY ([3]; 40° C./75% RH, 4 weeks): 99.9
APPEARANCE ([3]; 60° C., 1 week): white powder
POLYMORPH ([3]; 60° C., 1 week): Form C
ASSAY ([3]; 60° C., 1 week): 99.9
APPEARANCE ([3]; 60° C., 2 weeks): white powder
ASSAY ([3]; 60° C., 2 weeks): 99.9
APPEARANCE ([3]; 60° C., 4 weeks): white powder
POLYMORPH ([3]; 60° C., 4 weeks): Form C
ASSAY ([3]; 60° C., 4 weeks): 99.9
thermal stability ([3]; at 40 and 60° C. over the duration of the assay): thermal stable
APPEARANCE ([4]; 93% RH, 4 weeks): white powder
POLYMORPH ([4]; 93% RH, 4 weeks): Form C
WEIGHT GAIN ([4]; 93% RH, 4 weeks): 0%
ASSAY ([4]; 93% RH, 4 weeks, HPLC): 99.9
hygroscopicity ([4]; 93% relative humidity, 4 weeks): not hygroscopic
Adiabatic Temperature Rise [5]: 265 °C
corrected exothermic decomposition onset temperature [5]: 152 °C
enthalpy of decomposition exotherm [5]: -132 cal/g
exothermic decomposition onset temperature [2]: approximately 210 °C
exothermic decomposition onset temperature ([2]; listed as Form C polymorph of Ia): 210 °C
Compound: [N-]=[N+]=N[C@]1(CO)O[C@@H](n2ccc(N)nc2=O)[C@H](O)[C@@H]1O [Form C of Ia]

hygroscopicity relative to the free base [4]: less hygroscopic than the free base
weight gain on storage ([4]; stored at high relative humidity): No weight gain
Compound: [N-]=[N+]=N[C@]1(CO)O[C@@H](n2ccc(N)nc2=O)[C@H](O)[C@@H]1O [Ia]
